This is an account of results in publication PMC8095314 (ChemistryOpen, 2021).

One data set relates to His64. The data set is described as follows: kinetics. Particulars: cited from earlier work.
The next data set concerns the target recombinant human CA II (Homo sapiens, UniProt P00918). Particulars: read-out: Kd CA II (FTSA); observed, pH 7.0, 37 °C; cited from earlier work.
Data set [1] deals with T1, recombinant human CA XII (Homo sapiens, UniProt O43570). Particulars: read-out: Kd CA XII (FTSA); observed, pH 7.0, 37 °C; cited from earlier work.
A further data set deals with chCA XII (Homo sapiens, UniProt P00918, A65S/F130A/I91T/L203N/N67K/V134S). The experiment in a line: Fluorescent thermal shift assay.
Data set [2] has as its target T1, recombinant human CA XII. Type of data set: binding. Particulars: from FTSA Kd.

Where “and” joins values, the source holds several entries; their conditions need not be identical. Equal values may be shown once.

T1 sequence (O43570 25-354): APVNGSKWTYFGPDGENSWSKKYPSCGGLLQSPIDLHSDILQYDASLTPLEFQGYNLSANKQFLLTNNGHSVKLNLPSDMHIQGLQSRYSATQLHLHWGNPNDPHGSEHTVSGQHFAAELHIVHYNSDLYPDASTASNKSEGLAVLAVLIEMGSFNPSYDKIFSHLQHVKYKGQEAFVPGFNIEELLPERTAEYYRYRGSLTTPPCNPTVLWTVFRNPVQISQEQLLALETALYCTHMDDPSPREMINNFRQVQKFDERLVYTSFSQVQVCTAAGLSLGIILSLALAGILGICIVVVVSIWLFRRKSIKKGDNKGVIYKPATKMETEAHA

Turning to “Carbonic anhydrase XII (CA XII) (Homo sapiens)”, in the data set on His64, the pKa is 8.0±0.2 and 7.5±0.1.
Consider `NS(=O)(=O)c1ccc2ccccc2c1` [Compound 37, naphthalene‐2‐sulfonamide], for which the Kd is 0.77 µM at recombinant human CA II, 6.3 µM on recombinant human CA XII [1] and 6.7 µM at chCA XII. Further, the “Kd ratio CA XII/CA II” value at recombinant human CA XII [2] is given as 8.2.
